Reference: PMC11901700, “A Sweet Almond Globulin Multifunctional Peptide: Identification, In Silico Screening, Restraint Mechanisms to Keap1 and ACE, and Antihypertensive and Ferrous Transport Efficiency” (Nutrients, 2025)
Where no end group is shown, it is not given here.

Assays:
ABTS+ quenching ability = type: physicochemical; settings: at 100 μg/mL; absorbance at 734 nm; mean ± standard error
Procedure: The ABTS^+ quenching ability was determined following the same procedures described by Vásquez et al.. The same system without the sample was the control, and glutathione (0.1 mg/mL) was the comparison. The percentage of reduction in absorbance at 734 nm was defined as the ABTS^+ scavenging ability of samples.

[1] = tested on: spontaneously hypertensive rats (SHRs); experiment: Effects on blood pressures of spontaneously hypertensive rats; type: in vivo, rat
Procedure: Spontaneously hypertensive rats (SHRs, each weighting approximately 250 g, 14 weeks old) were obtained from Vitonglihua Test Animal Biotech. Co., Ltd. (Beijing, China) and used to investigate the hypotensive ability of ACE inhibitory and antioxidant SAGH peptides. After 7 days of adaptation, the SHRs were assigned to the blank, positive, SAGH peptides, and SAGH peptide–ferrous chelate groups (each group contained six SHRs), which were orally administered NaCl ([…]), captopril (14 mg per body weight kg), peptides (50, 150, and 200 mg per body weight kg), and peptide–ferrous chelates (50, 150, and 200 mg per body weight kg) every day, respectively. At 0, 120, 360, and 600 min after oral administration, the systolic and diastolic blood pressures and heart rates of the SHRs were measured using a NIBP-M1 Rat-tail noninvasive blood pressure monitor (Yuyan Scientific Instrument Co., Ltd., Shanghai, China) following the tail cuff method.

[2] = Hydroxyl radical scavenging activity (β-deoxyribose oxidation method); type: physicochemical; settings: at 100 μg/mL
Procedure: (§1) As described by Wang et al. and Vásquez et al., the hydroxyl (·OH) and superoxide ( O2−· ) radicals’ scavenging activity was measured using the β-deoxyribose oxidation and pyrogallol auto-oxidation methods, respectively. The comparison was conducted when the samples were replaced by glutathione (0.1 mg/mL).

[3] = Superoxide radical scavenging activity (pyrogallol auto-oxidation method); type: physicochemical; settings: at 100 μg/mL
Procedure: as §1

[4] = listed as PMYGGGMV–ferrous chelates

PMYGGGMV–ferrous chelate: chelate prepared by reacting the peptide with FeCl2 at pH 6.5 (also: ferrous iron chelate (reaction with FeCl2))
ABTS+ Scavenging Activity (%) Before Gastrointestinal Digestion (ABTS+ quenching ability): 35.27 ± 2.45 d %
dose dependence of blood pressure lowering effect ([1]; oral, 50, 150 and 200 mg/kg body weight, p > 0.05): not dose-dependent
effect on diastolic and systolic blood pressures ([1]; oral, 50–200 mg/kg body weight, from 1 h of dosing, tail cuff method, p < 0.05): apparently lowered the diastolic and systolic blood pressures
·OH Scavenging Activity (%) Before Gastrointestinal Digestion [2]: 57.69 ± 0.07 d %
·OH Scavenging Activity (%) Before Gastrointestinal Digestion [2, 4]: 60.04%
Superoxide Radical Scavenging Ability (%) Before Gastrointestinal Digestion [3]: 75.49 ± 4.09 b %
Superoxide Radical Scavenging Ability (%) Before Gastrointestinal Digestion [3, 4]: 75.49%
